Results from US20240173289A1, “USE OF OXYMETHYL-MODIFIED DERIVATIVE OF QUERCETIN IN PREPARATION OF DRUG FOR INHIBITING TUMOR CELL PROLIFERATION” (ZHEJIANG UNIVERSITY, priority 2021, published 2024).

Assays:
Assay type in all cases: cell-based
breast cancer cells T47D = test: scratch closure test; conditions: 3 mg/L, 24 h
Procedure: (§1) Cells with a certain density (6×10^5 cells per mL for AGS, T47D, Caco2, BCPAP, GES, HUVEC; 5×10^5 cells per mL for HepG2, MDA-MB-231, BGC-823, A549, PC3, L02; 3×10^5 cells per mL for 143B, HOS, U2, SGC-7901, Hela, BV-2; and 1.8×10^6 cells per mL for WI-38) were spread on a 6-well plate (1 mL per well), added with a DMEM medium containing 10% fetal calf serum, and cultured overnight to form a monolayer of cells. A horizontal scratch was scratched on the monolayer of cells with a pipette tip of 200 μL, washed with PBS 3 times, added into a DMEM medium containing 10% fetal bovine serum, and then added with corresponding dosages of a quercetin 3,3′-dimethyl ether solution (the dosage of osteosarcoma cells was 143B: 4 mg/L, HOS: 4 mg/L, U2: 10 mg/L; the dosage of breast cancer cells was MDA-MB-231: 2 mg/L, T47D: 3 mg/L; the dosage of gastric cancer cells was SGC7901: 6 mg/L, BGC823: 5 mg/L, AGS: 3 mg/L; the dosage of cervical cancer Hela cells was 2 mg/L; the dosage of lung cancer cell A549 was 3 mg/L; the dosage of intestinal cancer cells Caco2 was 4 mg/L; the dosage of mouse glioma BV2 was 4 mg/L; the dosage of human prostate cancer cells PC3 was 6 mg/L; and the dosage of human thyroid cancer cells BCPAP was 2 mg/L), while DMSO was used as a solvent control, and then incubated for 24 h. A scratch width and a measurement width were determined under a microscope, and a scratch closure ratio was calculated as follows: scratch closure ratio=(scratch width−measurement width)/scratch width×100%. Scratch inhibition ratio=(scratch closure ratio of control group−scratch closure ratio of treatment group)/scratch closure ratio of control group×100%.

[1] = test system: gastric cancer cells BGC-823; test: scratch closure test; conditions: Homo sapiens, BGC823, 5 mg/L, 24 h, versus control group, read-out: inhibition rate of scratch closure
Procedure: as §1

[2] = test system: human thyroid cancer cells BCPAP; test: scratch closure test; conditions: 2 mg/L, 24 h
Procedure: as §1

osteosarcoma cells U2 = test: scratch closure test; conditions: 10 mg/L, 24 h
Procedure: as §1

mouse glioma BV2 = test: scratch closure test; conditions: 4 mg/L, 24 h
Procedure: as §1

[3] = test system: human prostate cancer cells PC3; test: scratch closure test; conditions: 6 mg/L, 24 h
Procedure: as §1

[4] = test system: gastric cancer cells SGC-7901; test: scratch closure test; conditions: 24 h
Procedure: as §1

osteosarcoma cells 143B = test: scratch closure test; conditions: Homo sapiens, 4 mg/L, 24 h, versus control group, read-out: inhibition rate of scratch closure
Procedure: as §1

[5] = test system: breast cancer cells MDA-MB-231; test: scratch closure test; conditions: 2 mg/L, 24 h
Procedure: as §1

[6] = test system: intestinal cancer cells Caco2; test: scratch closure test; conditions: 24 h
Procedure: as §1

osteosarcoma cells HOS = test: scratch closure test; conditions: 4 mg/L, 24 h, versus control group, read-out: inhibition rate of scratch closure
Procedure: as §1

gastric cancer cells AGS = test: scratch closure test; conditions: 3 mg/L, 24 h
Procedure: as §1

lung cancer cell A549 = test: scratch closure test; conditions: Homo sapiens, 3 mg/L, 24 h, versus control group, read-out: inhibition rate of scratch closure
Procedure: as §1

[7] = test system: cervical cancer Hela cells; test: scratch closure test; conditions: 2 mg/L, 24 h
Procedure: as §1

[8] = test system: human normal liver cell line L02; test: in vitro proliferation inhibition on normal cells (CCK-8); conditions: 48 h, read-out: half-inhibitory concentration
Text: (§2) Osteosarcoma cell line 143B, HOS, and U2, liver cancer cell line HepG2, breast cancer cell line MDA-MB-231 and T47D, gastric cancer cell line AGS, BGC-823, and SGC-7901, cervical cancer cells Hela, lung cancer cells A549, intestinal cancer cells Caco2, mouse glioma cells BV-2, human prostate cancer cells PC3, human thyroid cancer cell line BCPAP, human normal liver cell line L02, human normal gastric cell line GES, human umbilical vein epithelial cells HUVEC, and human embryonic lung fibroblasts WI-38 were cultured in a DMEM medium containing 10% fetal bovine serum and 1×HEPES in a humid incubator (37° C., 5% CO2). The cells were passaged with trypsin-EDTA in logarithmic phase. Certain density of cells (AGS, T47D, Caco2, BCPAP, GES, HUVEC 1×10^5 cells per well; HepG2, MDA-MB-231, BGC-823, A549, PC3, L02 8×10^4 cells per well; 143B, HOS, U2, SGC-7901, Hela, BV-2, 5×10^4 cells per well; WI-38, 3×10^5 cells per well) were inoculated in a 96-well plate, and cultured for 24 h before treatment. After replacing a fresh medium, 12.5 mg/L to 400 mg/L, of quercetin 3,3′-dimethyl ether dissolved with DMSO was added into a medium (a final volume ratio was 0.1%, and the DMSO was used as a […]). After incubation for 48 h, a complete medium was replaced with a serum-free medium containing 10% CCK-8 reagent. The absorbance at 450 nm and 620 nm was measured separately after the cells were incubated for 1 h. Each experiment was repeated three times independently.

[9] = test system: human normal gastric cell line GES; test: as above; conditions: 48 h, read-out: half-inhibitory concentration
Text: as §2

[10] = test system: human umbilical vein epithelial cells HUVEC; test: as above; conditions: 48 h, read-out: half-inhibitory concentration
Text: as §2

[11] = test system: human embryonic lung fibroblasts WI-38; test: as above; conditions: 48 h, read-out: half-inhibitory concentration
Text: as §2

[12] = Homo sapiens, versus control group, read-out: inhibition rate of scratch closure
[13] = versus control group, read-out: inhibition rate of scratch closure

## COc1cc(-c2oc3cc(O)cc(O)c3c(=O)c2OC)ccc1O [Quercetin 3,3′-dimethyl ether, quercetin 3,3′-dimethyl ether]
Breast cancer cells T47D
  Treatment scratch closed %: 31.83 ± 6.01 %
Breast cancer cells T47D; [12]
  inhibition at 3 µg/mL: 64.1%
[1]
  inhibition at 5 µg/mL: 73.7%
[2]
  Treatment scratch closed %: 30.31 ± 5.21 %
[2]; [12]
  inhibition at 2 µg/mL: 64.7%
Osteosarcoma cells U2
  Treatment scratch closed %: 27.67 ± 6.81 %
Osteosarcoma cells U2; [13]
  inhibition at 10 µg/mL: 70.5%
Mouse glioma BV2; BV-2
  Treatment scratch closed %: 21.17 ± 8.55 %
Mouse glioma BV2; Mus musculus, BV2, versus control group, read-out: inhibition rate of scratch closure
  inhibition at 4 µg/mL: 75.2%
[3]
  Treatment scratch closed %: 24.76 ± 5.55 %
[3]; [12]
  inhibition at 6 µg/mL: 70.9%
[4]; 6 mg/L
  Treatment scratch closed %: 25.05 ± 10.1 %
[4]; Homo sapiens, SGC7901, 6 mg/L, versus control group, read-out: inhibition rate of scratch closure
  inhibition at 6 µg/mL: 72%
Osteosarcoma cells 143B
  inhibition at 4 µg/mL: 54.3%
[5]
  Treatment scratch closed %: 16.72 ± 3.87 %
[5]; [12]
  inhibition at 2 µg/mL: 82%
[6]; 4 mg/L
  Treatment scratch closed %: 28.37 ± 10.21 %
[6]; Homo sapiens, Caco-2, 4 mg/L, versus control group, read-out: inhibition rate of scratch closure
  inhibition at 4 µg/mL: 66.6%
Osteosarcoma cells HOS
  inhibition at 4 µg/mL: 57.6%
Gastric cancer cells AGS
  Treatment scratch closed %: 31.67 ± 3.39 %
Gastric cancer cells AGS; [13]
  inhibition at 3 µg/mL: 60.9%
Lung cancer cell A549
  inhibition at 3 µg/mL: 69.6%
[7]
  Treatment scratch closed %: 37.42 ± 1.62 %
[7]; [12]
  inhibition at 2 µg/mL: 54%
[8]
  IC50: > 100 µg/mL
[9]
  IC50: > 100 µg/mL
[10]
  IC50: > 100 µg/mL
[11]
  IC50: > 100 µg/mL
